Columns and labels:
[1] = target: GDP-bound NRAS wild-type protein (Homo sapiens, UniProt P01111); assay: Binding to NRAS by surface plasmon resonance (SPR), Single Cycle Kinetics; settings: KD ratio, GDP-bound NRAS wild-type vs GDP-bound KRAS wild-type, SPR
[2] = target: GDP-bound HRAS wild-type protein (Homo sapiens, UniProt P01112); assay: Binding to HRAS by surface plasmon resonance (SPR), Single Cycle Kinetics; settings: KD ratio, GDP-bound HRAS wild-type vs GDP-bound KRAS wild-type, SPR
Chain of GDP-bound HRAS wild-type protein (P01112 whole entry): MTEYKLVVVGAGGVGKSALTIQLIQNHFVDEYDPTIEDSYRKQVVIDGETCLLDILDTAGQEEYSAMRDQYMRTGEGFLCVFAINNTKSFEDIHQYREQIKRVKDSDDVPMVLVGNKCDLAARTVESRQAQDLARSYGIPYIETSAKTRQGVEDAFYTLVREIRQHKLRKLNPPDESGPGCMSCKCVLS

Chain of GDP-bound NRAS wild-type protein (P01111 whole entry): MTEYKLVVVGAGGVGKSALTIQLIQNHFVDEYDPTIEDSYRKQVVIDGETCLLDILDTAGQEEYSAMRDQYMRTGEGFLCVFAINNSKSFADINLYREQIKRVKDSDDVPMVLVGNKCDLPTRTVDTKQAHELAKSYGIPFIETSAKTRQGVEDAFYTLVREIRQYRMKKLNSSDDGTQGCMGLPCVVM

| SMILES | NRAS/KRAS (ratio of KD value with respect to NRAS to KD value with respect to KRAS) [1] | HRAS/KRAS (ratio of KD value with respect to HRAS to KD value with respect to KRAS) [2] |
| --- | --- | --- |
| CCCO[C@@H]1C[C@H]2C(=O)NC3(CCC3)C(=O)N(C)[C@@H](C3CCCC3)C(=O)N(C)[C@H](C(=O)N3CCOCC3)CC(=O)N(C)[C@@H](CC(C)C)C(=O)N[C@@H]([C@@H](C)CC)C(=O)N(C)CC(=O)N(C)[C@H]3CCCCCN(C3=O)[C@@H](Cc3ccc(C(F)(F)F)cc3)C(=O)N(C)CC(=O)N[C@@H](CCc3cc(F)c(C(F)(F)F)c(F)c3)C(=O)N2C1 [PP1161] | B (a compound having 3 or more and less than 10 is denoted as B) | B (a compound having 3 or more and less than 10 is denoted as B) |
| CCO[C@@H]1C[C@H]2C(=O)NC3(CCC3)C(=O)N(C)[C@@H](C3CCCC3)C(=O)N(C)[C@H](C(=O)N3CCOCC3)CC(=O)N(C)[C@@H](Cc3cccs3)C(=O)N[C@@H]([C@@H](C)CC)C(=O)N(C)CC(=O)N(C)[C@H]3CCCCCN(C3=O)[C@@H](Cc3ccc(C(F)(F)F)cc3)C(=O)N(C)CC(=O)N[C@@H](CCc3cc(F)c(C(F)(F)F)c(F)c3)C(=O)N2C1 [PP1163] | B (a compound having 3 or more and less than 10 is denoted as B) | B (a compound having 3 or more and less than 10 is denoted as B) |
| CCO[C@@H]1C[C@H]2C(=O)NC3(CCC3)C(=O)N(C)[C@@H](C3CCCC3)C(=O)N(C)[C@H](C(=O)N3CCOCC3)CC(=O)N(C)[C@@H](Cc3ccsc3)C(=O)N[C@@H]([C@@H](C)CC)C(=O)N(C)CC(=O)N(C)[C@H]3CCCCCN(C3=O)[C@@H](Cc3ccc(C(F)(F)F)cc3)C(=O)N(C)CC(=O)N[C@@H](CCc3cc(F)c(C(F)(F)F)c(F)c3)C(=O)N2C1 [PP1164] | B (a compound having 3 or more and less than 10 is denoted as B) | B (a compound having 3 or more and less than 10 is denoted as B) |
| CCO[C@@H]1C[C@H]2C(=O)NC3(CCC3)C(=O)N(C)[C@@H](C3CCCC3)C(=O)N(C)[C@H](C(=O)N3CCOCC3)CC(=O)N(C)[C@@H](Cc3ccccc3C#N)C(=O)N[C@@H]([C@@H](C)CC)C(=O)N(C)CC(=O)N(C)[C@H]3CCCCCN(C3=O)[C@@H](Cc3ccc(C(F)(F)F)cc3)C(=O)N(C)CC(=O)N[C@@H](CCc3cc(F)c(C(F)(F)F)c(F)c3)C(=O)N2C1 [PP1165] | A (a compound having 10 or more and less than 20 is denoted as A) | B (a compound having 3 or more and less than 10 is denoted as B) |
| CCO[C@@H]1C[C@H]2C(=O)NC3(CCC3)C(=O)N(C)[C@@H](C3CCCC3)C(=O)N(C)[C@H](C(=O)N3CCOCC3)CC(=O)N(C)[C@@H](Cc3ccc(C#N)cc3)C(=O)N[C@@H]([C@@H](C)CC)C(=O)N(C)CC(=O)N(C)[C@H]3CCCCCN(C3=O)[C@@H](Cc3ccc(C(F)(F)F)cc3)C(=O)N(C)CC(=O)N[C@@H](CCc3cc(F)c(C(F)(F)F)c(F)c3)C(=O)N2C1 [PP1167] | B (a compound having 3 or more and less than 10 is denoted as B) | B (a compound having 3 or more and less than 10 is denoted as B) |
| CCO[C@@H]1C[C@H]2C(=O)NC3(CCC3)C(=O)N(C)[C@@H](C3CCCC3)C(=O)N(C)[C@H](C(=O)N3CCOCC3)CC(=O)N(C)[C@@H](Cc3ccc(Cl)c(Cl)c3)C(=O)N[C@@H]([C@@H](C)CC)C(=O)N(C)CC(=O)N(C)[C@H]3CCCCCN(C3=O)[C@@H](Cc3ccc(C(F)(F)F)cc3)C(=O)N(C)CC(=O)N[C@@H](CCc3cc(F)c(C(F)(F)F)c(F)c3)C(=O)N2C1 [PP1168] | A (a compound having 10 or more and less than 20 is denoted as A) | A (a compound having 10 or more and less than 20 is denoted as A) |
